Experimental findings from patent publication US20210403435A1, “HERBICIDAL COMPOUNDS” (SYNGENTA CROP PROTECTION AG, priority 2018, published 2021) are described below.

Holding throughout (assay): Post-emergence efficacy, glasshouse, evaluated after 13 days
Holding throughout (type): in vivo

The subject of assay [1] is Amaranthus palmeri (AMAPA). The settings on record: Amaranthus palmeri, 312 h; post-emergence application, 500 g/Ha, evaluated after 13 days; read-out: Control of weed species AMAPA (100=total damage to plant; 0=no damage to plant). The essentials: (§1)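 Glasshouse post-emergence test: 14-day plants sprayed, then maintained at 24/16 °C day/night, 14 h photoperiod, 65% humidity. Evaluation at day 13 uses a percentage damage scale (100 = plant fully damaged).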

In assay [2] the test system is Chenopodium album (CHEAL). The settings on record: Chenopodium album, 312 h; post-emergence application, 500 g/Ha, evaluated after 13 days; read-out: Control of weed species CHEAL (100=total damage to plant; 0=no damage to plant). Summed up: as §1
The test system of assay [3] is Digitaria sanguinalis (DIGSA). The settings on record: Digitaria sanguinalis, 312 h; post-emergence application, 500 g/Ha, evaluated after 13 days; read-out: Control of weed species DIGSA (100=total damage to plant; 0=no damage to plant). The essentials:
as §1

For assay [4], the system named is Echinochloa crus-galli (ECHCG). The settings on record: Echinochloa crus-galli, 312 h; post-emergence application, 500 g/Ha, evaluated after 13 days; read-out: Control of weed species ECHCG (100=total damage to plant; 0=no damage to plant). Summed up: as §1
A further assay concerns Eleusine indica (ELEIN). The settings on record: Eleusine indica, 312 h; post-emergence application, 500 g/Ha, evaluated after 13 days; read-out: Control of weed species ELEIN (100=total damage to plant; 0=no damage to plant). The essentials: as §1
The subject of assay [5] is Euphorbia heterophylla (EPHHL). The note with it: Euphorbia heterophylla, 312 h; post-emergence application, 500 g/Ha, evaluated after 13 days; read-out: Control of weed species EPHHL (100=total damage to plant; 0=no damage to plant). The essentials:
as §1

Assay [6] has as its system Ipomoea hederacea (IPOHE). The settings on record: Ipomoea hederacea, 312 h; post-emergence application, 500 g/Ha, evaluated after 13 days; read-out: Control of weed species IPOHE (100=total damage to plant; 0=no damage to plant). The essentials:
as §1

The subject of another assay is Lolium perenne (LOLPE). The note with it: Lolium perenne, 312 h; post-emergence application, 500 g/Ha, evaluated after 13 days; read-out: Control of weed species LOLPE (100=total damage to plant; 0=no damage to plant). Summed up:
as §1

Another assay relates to Setaria faberi (SETFA). The note with it: Setaria faberi, 312 h; post-emergence application, 500 g/Ha, evaluated after 13 days; read-out: Control of weed species SETFA (100=total damage to plant; 0=no damage to plant). Summed up: as §1

In the case of `CC(C)(C)NC(=O)c1cc[n+](CCC(=O)O)nc1` [Compound A15], the pest or weed control at 500 g/ha in assay [1] came to 100%; in assay [2], 100%; in assay [3], 90%; in assay [4], 90%; with Eleusine indica (ELEIN), 100%; in assay [5] it was 90%. Further, the values for the pest or weed control at 500 g/ha (in assay [6]; in the assay on Lolium perenne (LOLPE); in the assay on Setaria faberi (SETFA)) were 30%, 70% and 100%, respectively.

For the compound `CC1CC1NC(=O)c1cc[n+](CCC(=O)O)nc1` (stereo not drawn) [Compound A101], the pest or weed control at 500 g/ha in assay [1] stood at 100%; in assay [2], 100%; in [3] it was 100%; in assay [4], 90%; in the assay on Eleusine indica (ELEIN), 70%; in [5] it was 50%. The values for the pest or weed control at 500 g/ha (in assay [6]; with Lolium perenne (LOLPE); with Setaria faberi (SETFA)) were 50%, 80% and 90%, respectively.

Turning to `CC(C)CNC(=O)c1cc[n+](CCS(=O)(=O)[O-])nc1` [Compound A37], the pest or weed control at 500 g/ha in assay [1] turned out to be 100%; in assay [2], 80%; in [3], 70%; in assay [4], 50%; in the assay with Eleusine indica (ELEIN) it was 60%; in assay [5] it was 70%. Also, the pest or weed control at 500 g/ha in [6] was determined as 50%; in the assay with Lolium perenne (LOLPE), 50%; in the assay with Setaria faberi (SETFA) it was 70%.

For the compound `O=C(O)CC[n+]1ccc(C(=O)Nc2ccon2)cn1` [Compound A41], the pest or weed control at 500 g/ha turned out to be 80% in [1]; 90% in assay [2]; 70% in assay [3]; 50% in [4]; 60% with Eleusine indica (ELEIN); 90% in assay [5]. Further, the results for the pest or weed control at 500 g/ha (in [6]; in the assay with Lolium perenne (LOLPE); in the assay on Setaria faberi (SETFA)) were 20%, 10% and 90%, respectively.

`CC1(C)CC1NC(=O)c1cc[n+](CCC(=O)O)nc1` (stereo not drawn) [Compound A137]: the pest or weed control at 500 g/ha came out at 100% in assay [1]; 90% in assay [2]; 100% in assay [3]; 100% in assay [4]; 100% in the assay with Eleusine indica (ELEIN); 10% in assay [5]. Further, the pest or weed control at 500 g/ha in assay [6] was found to be 0%; in the assay with Lolium perenne (LOLPE) it was 100%; in the assay with Setaria faberi (SETFA), 70%.

`COCC(C)NC(=O)c1cc[n+](CCC(=O)O)nc1` (stereo not drawn) [Compound A132]: the pest or weed control at 500 g/ha turned out to be 100% in assay [1]; 100% in assay [2]; 100% in assay [3]; 90% in [4]; 100% in the assay on Eleusine indica (ELEIN); 70% in assay [5]. Moreover, the pest or weed control at 500 g/ha was found to be 40% in assay [6], 90% in the assay with Lolium perenne (LOLPE) and 100% in the assay on Setaria faberi (SETFA).

Take `CC(C)N(C(=O)c1cc[n+](CCS(=O)(=O)O)nc1)C(C)C` [Compound A14]: the pest or weed control at 500 g/ha worked out at 100% in assay [1]; 70% in assay [2]; 30% in [3]; 10% in assay [4]; 10% in the assay on Eleusine indica (ELEIN); 50% in [5]. The pest or weed control at 500 g/ha stood at 30% in [6], 0% in the assay with Lolium perenne (LOLPE) and 10% in the assay with Setaria faberi (SETFA).
